{
  "source": "patent US20220362386A1",
  "about": "“LIQUID COMPOSITIONS COMPRISING A LEVODOPA AMINO ACID CONJUGATE AND USES THEREOF” (NeuroDerm, Ltd., priority 2019, published 2022)",
  "key": {"[1]": {"experiment": "LD-Arg, LD-Lys and LD-Tyr formulations of Experimental Example 12, physical stability (Tables 35-41)", "format": "physicochemical", "conditions": "for Physical Stability: room temperature overnight", "protocol": "Formulations as described in the tables below were prepared by adding a CD solution and dissolving all ingredients together. The CD for the LD-Arg formulation was prepared as follows: WFI was added to a bottle, after which Tween® 80 and sodium bisulfite were added, stirred to dissolution, and heated to 60° C. CD was added, stirred for 1-2 minutes to achieve homogenization. Finally, L-Arginine was added, the bottle was flushed with nitrogen, tightly closed and stirred 15 min. Dissolution was verified and the preparation was allowed to cool to ambient temperature. The pH was measured, and the preparation was transferred to a measurement bottle, where the volume was completed to the predefined final volume by adding WFI. The preparation was then filtered through sterile 0.22 μm nylon filter, transferred to 20 ml vials, after which nitrogen was purged into the headspace and the vials were frozen at −20° C. until use.\nThe CD solution for the LD-Tyr and LD-Lys formulations was prepared as follows: WFI was added to a bottle. Tween® 80 and sodium bisulfite were added, stirred to dissolution and heated to 60° C. CD was added, and stirred for 1-2 minutes to achieve homogenization. NaOH was added, after which the bottle was washed with nitrogen, closed tightly and stirred for 15 minutes. Dissolution was verified and the preparation was allowed to cool to ambient temperature. The pH was measured, and preparation was transferred to a measurement bottle, in which the volume was completed to final predefined volume by adding WFI. The preparation was then filtered through a sterile 0.22 μm nylon filter, transferred to 20 ml vials, after which nitrogen was purged into headspace and the vials were frozen at −20° C. until use."}, "[2]": {"experiment": "Stability observation of the solubility solutions at 25° C. (visual inspection for precipitants)", "format": "physicochemical", "conditions": "0.75% CD solution", "protocol": "The volume of the solution in the bottle was adjusted to 5 ml, either by adding solvent, or be removing any residual solution, after which the bottle was tightly closed and left at 25° C. for stability observation. […] It is further noted that throughout this document, unless mentioned otherwise, the stability was measured using the manual visual inspection Bosch apparatus MIH DX, at a magnification of ×1.75."}, "[3]": {"conditions": "t = 12 days, LD-Tyr 37.0%, CD 0.75%, L-Arginine 6.00, NaOH 0, TRIS 13, pH 8.14"}, "[4]": {"conditions": "t = 14 days, LD-Tyr 44.0%, CD 0.75%, L-Arginine 25.70, NaOH 0, TRIS 0, pH 8.34"}, "[5]": {"conditions": "t = 26 days, LD-Tyr 37.0%, CD 0.75%, L-Arginine 6.00, NaOH 0, TRIS 12.124, pH 8.12"}, "[6]": {"conditions": "t = 26 days, LD-Tyr 44.0%, CD 0.75%, L-Arginine 6.76, NaOH 0, TRIS 13.726, pH 8.08"}},
  "note": "Structures can show the parent of a compound that is named as a salt. Non-standard residues stand in square brackets, D forms with d. Residues, ends and D or L forms follow the SMILES beside them. Dopa = N[C@@H](Cc1ccc(O)c(O)c1)C(=O)O",
  "data": [
    {"compound": "N[C@@H](Cc1ccc(O)c(O)c1)C(=O)N[C@@H](Cc1ccc(O)cc1)C(=O)O", "note": "[LD-Tyr TFA salt, Levodopa Tyrosine TFA Salt] (H-[Dopa]-Tyr-OH)", "values": [
      {"measurement": "Physical Stability", "setting": "[1]; LD-Tyr 20%, Arg 0%, TRIS 8.8%, pH 7.94, molar ratio 1:1.20", "value": "Precipitated"},
      {"measurement": "Physical Stability", "setting": "[1]; LD-Tyr 30%, Arg 4.5%, TRIS 9.72%, pH 8.00, molar ratio 1:1.20", "value": "Stable"},
      {"measurement": "Physical Stability", "setting": "[1]; LD-Tyr 37%, Arg 5.8%, TRIS 11.7%, pH 8.12, molar ratio 1:1.32", "value": "Stable"},
      {"measurement": "Physical Stability", "setting": "[1]; LD-Tyr 44%, Arg 6.8%, TRIS 13.8%, pH 8.02, molar ratio 1:1.20", "value": "Stable"},
      {"measurement": "Physical Stability", "setting": "[1]; LD-Tyr 44%, Arg 7.33%, TRIS 14.9%, pH 8.08, molar ratio 1:1.30", "value": "Stable"},
      {"measurement": "Appearance, 25° C.", "setting": "[1]; t = 1 days, LD-Tyr 44.0%, CD 0%, L-Arginine 21.4, NaOH 0.60, TRIS 0, pH 8.29", "value": "Stable"},
      {"measurement": "Appearance, Refrigerated (2-8° C.)", "setting": "[1]; t = 1 days, LD-Tyr 44.0%, CD 0.75%, L-Arginine 6.27, NaOH 0, TRIS 12.69, pH 8.02", "value": "Stable"},
      {"measurement": "Appearance, 25° C.", "setting": "[1]; t = 3 days, LD-Tyr 44.0%, CD 0.75%, L-Arginine 6.27, NaOH 0, TRIS 12.69, pH 8.02", "value": "Stable"},
      {"measurement": "Appearance, Refrigerated (2-8° C.)", "setting": "[1]; t = 7 days, LD-Tyr 44.0%, CD 0.75%, L-Arginine 8.00, NaOH 0, TRIS 15, pH 8.15", "value": "Stable"},
      {"measurement": "Appearance, 25° C.", "setting": "[1]; [3]", "value": "Stable"},
      {"measurement": "Appearance, Refrigerated (2-8° C.)", "setting": "[1]; [3]", "value": "Stable"},
      {"measurement": "Appearance, 25° C.", "setting": "[1]; t = 12 days, LD-Tyr 44.0%, CD 0.75%, L-Arginine 21.4, NaOH 0.60, TRIS 0, pH 8.29", "value": "Stable"},
      {"measurement": "Appearance, 25° C.", "setting": "[1]; t = 14 days, LD-Tyr 44.0%, CD 0.75%, L-Arginine 8.00, NaOH 0, TRIS 15, pH 8.15", "value": "Stable"},
      {"measurement": "Appearance, 25° C.", "setting": "[1]; [4]", "value": "Stable"},
      {"measurement": "Appearance, Refrigerated (2-8° C.)", "setting": "[1]; [4]", "value": "Stable"},
      {"measurement": "Appearance, 25° C.", "setting": "[1]; t = 24 days, LD-Tyr 44.0%, CD 0.75%, L-Arginine 21.86, NaOH 0.60, TRIS 0, pH 8.57", "value": "Stable"},
      {"measurement": "Appearance, 25° C.", "setting": "[1]; [5]", "value": "Stable"},
      {"measurement": "Appearance, Refrigerated (2-8° C.)", "setting": "[1]; [5]", "value": "Stable"},
      {"measurement": "Appearance, 25° C.", "setting": "[1]; [6]", "value": "Stable"},
      {"measurement": "Appearance, Refrigerated (2-8° C.)", "setting": "[1]; [6]", "value": "Stable"},
      {"measurement": "Appearance, 25° C.", "setting": "[1]; t = 27 days, LD-Tyr 44.0%, CD 0.75%, L-Arginine 25.72, NaOH 0, TRIS 0, pH 8.43", "value": "Stable"},
      {"measurement": "Appearance, Refrigerated (2-8° C.)", "setting": "[1]; t = 44 days, LD-Tyr 30.0%, CD 0.75%, L-Arginine 7.00, NaOH 0, TRIS 10.5, pH 8.23", "value": "precipitated"},
      {"measurement": "Appearance, Refrigerated (2-8° C.)", "setting": "[1]; t = 50 days, LD-Tyr 30.0%, CD 0.75%, L-Arginine 18.10, NaOH 0, TRIS 0, pH 8.36", "value": "Stable"},
      {"measurement": "Appearance, Refrigerated (2-8° C.)", "setting": "[1]; t = 56 days, LD-Tyr 44.0%, CD 0.75%, L-Arginine 21.86, NaOH 0.60, TRIS 0, pH 8.57", "value": "Stable"},
      {"measurement": "Appearance, 25° C.", "setting": "[1]; t = 70 days, LD-Tyr 38.0%, CD 0%, L-Arginine 21.90, NaOH 0, TRIS 0, pH 8.43", "value": "Stable"},
      {"measurement": "Appearance, Refrigerated (2-8° C.)", "setting": "[1]; t = 70 days, LD-Tyr 44.0%, CD 0.75%, L-Arginine 25.72, NaOH 0, TRIS 0, pH 8.43", "value": "Stable"}
    ]},
    {"compound": "NCCCC[C@H](NC(=O)[C@@H](N)Cc1ccc(O)c(O)c1)C(=O)O", "note": "[LD-Lys TFA salt, Levodopa Lysine TFA Salt] (H-[Dopa]-Lys-OH)", "values": [
      {"measurement": "Stability", "setting": "[2]; pH 6.5, 250 mg/ml salt", "value": "Precipitated* (precipitated within 12 hours)"},
      {"measurement": "Stability", "setting": "[2]; pH 7.4, 250 mg/ml salt", "value": "Precipitated* (precipitated within 12 hours)"}
    ]}
  ]
}
